We go through 32 molecules from US7495104B2, “Quinoline or quinazoline derivatives inhibiting auto-phosphorylation of fibroblast growth factor receptors” (Kirin Beer Kabushiki Kaisha, priority 2001, dated 2009).

The structures appear in SMILES notation.

Bek, sequence (P21802 431-767 limits assumed): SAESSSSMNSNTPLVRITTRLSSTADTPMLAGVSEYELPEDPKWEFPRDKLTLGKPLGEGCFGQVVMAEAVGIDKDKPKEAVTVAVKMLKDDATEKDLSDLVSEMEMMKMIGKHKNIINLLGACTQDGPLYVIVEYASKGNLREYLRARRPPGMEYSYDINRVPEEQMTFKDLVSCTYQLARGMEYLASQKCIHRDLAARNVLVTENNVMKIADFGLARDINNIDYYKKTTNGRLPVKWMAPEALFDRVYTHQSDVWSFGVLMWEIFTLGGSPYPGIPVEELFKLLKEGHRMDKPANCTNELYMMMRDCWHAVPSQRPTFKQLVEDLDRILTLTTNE

This assay has as its target Bek (Homo sapiens, UniProt P21802). The assay can be described thus: Inhibitory activity against Bek-autophosphorylation using ELISA method in OCUM-2MD3 cells. It is filed as cell-based. To be noted: 1 hr with compound, read-out: IC50 (concentration necessary for inhibiting 50% of Bek-phosphorylation). The gist of the method:
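Sandwich ELISA (anti-phosphotyrosine capture, anti-Bek detection, peroxidase, 450 nm) measured Bek autophosphorylation in OCUM-2MD3 lysates after 1 hr compound treatment at 37° C in 0.1% serum medium. IC50 derived by scaling between no-drug (100%) and excess positive control at 1000 nM (0%).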
On to `CCN(CCO)CCCOc1cc2nccc(Oc3ccc(NC(=O)NCCC(C)(C)C)c(F)c3)c2cc1OC` [Compound 344, 1-(3,3-Dimethyl-butyl)-3-[4-(7-{3-[ethyl-(2-hydroxy-ethyl)-amino]-propoxy}-6-methoxy-quinolin-4-yloxy)-2-fluoro-phenyl]-urea], for which the IC50 is under 10 nM. With `COc1cc2c(Oc3ccc(NC(=O)NCCC(C)(C)C)cc3Cl)ccnc2cc1OCCCN1CC(C)OC(C)C1` (centres unmarked) [Compound 319, 1-(3-Chloro-4-{7-[3-(2,6-dimethyl-morpholin-4-yl)-propoxy]-6-methoxy-quinolin-4-yloxy}-phenyl)-3-(3,3-dimethyl-butyl)-urea], the IC50 was determined as 22 nM. Then `COc1cc2c(Oc3ccc(NC(=O)NCCC(C)(C)C)cc3)ccnc2cc1OCCCN1CCC(CO)CC1` [Compound 265, 1-(3,3-Dimethyl-butyl)-3-(4-{7-[3-(4-hydroxymethyl-piperidin-1-yl)-propoxy]-6-methoxy-quinolin-4-yloxy}-phenyl)-urea], with under 10 nM; and `C=Cc1ccc(Nc2ccc(Oc3ccnc4cc(OC)c(OC)cc34)cc2)cc1` [Compound 2, [4-(6,7-Dimethoxyquinolin-4-yloxy)phenyl]-(4-vinylphenyl)amine], with 7940 nM; and `COc1cc2c(Oc3ccc(NC(=O)NCCC(C)(C)C)cc3F)ccnc2cc1OCCN1CCC(CO)CC1` [Compound 295, 1-(3,3-Dimethyl-butyl)-3-(3-fluoro-4-{7-[2-(4-hydroxymethyl-piperidin-1-yl)-ethoxy]-6-methoxy-quinolin-4-yloxy}-phenyl)-urea], with 14.4 nM. Then `COc1cc2c(Oc3ccc(NC(=O)NCCC(C)(C)C)c(Cl)c3)ccnc2cc1OCCN1CCCCCC1` [Compound 185, 1-{4-[7-(2-Azepan-1-yl-ethoxy)-6-methoxy-quinolin-4-yloxy]-2-chloro-phenyl}-3-(3,3-dimethyl-butyl)-urea], with 54.8 nM; and `COc1cc2c(Oc3ccc(NC(=O)NCCC(C)(C)C)c(F)c3)ccnc2cc1OCCCCl` [Compound 204, 1-{4-[7-(3-Chloro-propoxy)-6-methoxy-quinolin-4-yloxy]-2-fluoro-phenyl}-3-(3,3-dimethyl-butyl)-urea], with 234 nM. Then `COc1cc2nccc(Oc3cc(C)c(Nc4ccc(C(C)(C)C)cc4)cc3C)c2cc1OC` [Compound 17, (4-Tert-butylphenyl)-[4-(6,7-dimethoxyquinolin-4-yloxy)-2,5-dimethylphenyl]amine], with 5610 nM; and `COc1cc2c(Oc3ccc(NC(=O)NCCC(C)(C)C)cc3)ccnc2cc1OCC(O)CN1CCC(N2CCCCC2)CC1` (centres unmarked) [Compound 261, 1-{4-[7-(3-[1,4′]Bipiperidineyl-1′-yl-2-hydroxy-propoxy)-6-methoxy-quinolin-4-yloxy]-phenyl}-3-(3,3-dimethyl-butyl)-urea], with under 10 nM. On to `COc1cc2c(Oc3ccc(Nc4ccc(C(C)(C)C)cc4)cc3)ccnc2cc1OCCCN1CCCC1` [Compound 53, (4-Tert-butylphenyl)-{4-[6-methoxy-7-(3-pyrrolidin-1-ylpropoxy)-quinolin-4-yloxy]phenyl}amine], for which the IC50 was found to be 38 nM. On to `COc1cc2c(Oc3ccc(NC(=O)NCCC(C)(C)C)cc3F)ccnc2cc1OCCCN1CC(C)OC(C)C1` (centres unmarked) [Compound 327, 1-(3,3-Dimethyl-butyl)-3-(4-{7-[3-(2,6-dimethyl-morpholin-4-yl)-propoxy]-6-methoxy-quinolin-4-yloxy}-3-fluoro-phenyl)-urea], for which the IC50 stood at 20.6 nM. `COc1cc2nccc(Oc3ccc(Nc4ccc(C(C)(C)C)cc4)cc3Cl)c2cc1OC` [Compound 12, (4-Tert-butylphenyl)-[3-chloro-4-(6,7-dimethoxyquinolin-4-yloxy)phenyl]amine]: the IC50 is 285 nM.

Take `COc1cc2c(Oc3ccc(NC(=O)NCCC(C)(C)C)cc3)ccnc2cc1OCCN1CCC(N2CCCC2)CC1` [Compound 124, 1-(3,3-Dimethyl-butyl)-3-(4-{6-methoxy-7-[2-(4-pyrrolidin-1-yl-piperidin-1-yl)-ethoxy]-quinolin-4-yloxy}-phenyl)-urea]: the IC50 was under 10 nM. Then `COc1cc2c(Oc3ccc(Nc4ccc(C(C)(C)C)cc4)c(Cl)c3)ccnc2cc1OCCN(CCO)CCO` [Compound 337, 2-[(2-{4-[4-(4-Tert-butyl-phenylamino)-3-chloro-phenoxy]-6-methoxy-quinolin-7-yloxy}-ethyl)-(2-hydroxy-ethyl)-amino]-ethanol], with 252 nM; and `COc1cc2nccc(Oc3ccc(Nc4ccc(-c5ccccc5)cc4)cc3)c2cc1OC` [Compound 3, Biphenyl-4-yl-[4-(6,7-dimethoxyquinolin-4-yloxy)phenyl]amine], with 4580 nM.

Turning to `COc1cc2c(Oc3ccc(Nc4ccc(C(C)(C)C)cc4)cc3)ccnc2cc1OCCCN(C)CCO` [Compound 52, 2-[(3-{4-[4-(4-Tert-butylphenylamino)phenoxy]-6-methoxy-quinolin-7-yloxy}propyl)methylamino]ethanol], the IC50 came out at 33 nM. For the molecule `COc1cc2nccc(Oc3cc(C)c(NC(=O)NCCC(C)(C)C)cc3C)c2cc1OC` [Compound 142, 1-[4-(6,7-Dimethoxy-quinolin-4-yloxy)-2,5-dimethyl-phenyl]-3-(3,3-dimethyl-butyl)-urea], the IC50 came out at 265 nM.

Turning to `COc1cc2nccc(Oc3ccc(C(OC(C)=O)c4ccc(C(C)(C)C)cc4)cc3)c2cc1OC` (centres unmarked) [Compound 31, (4-Tert-butylphenyl)-[4-(6,7-dimethoxyquinolin-4-yloxy)phenyl]methyl acetate], the IC50 is 1010 nM. Then `COc1cc2c(Oc3ccc(Nc4ccc(C(C)(C)C)cc4)c(F)c3)ccnc2cc1OCCCN1CCC(O)CC1` [Compound 289, 1-(3-{4-[4-(4-Tert-butyl-phenylamino)-3-fluoro-phenoxy]-6-methoxy-quinolin-7-yloxy}-propyl)-piperidin-4-ol], with 248 nM; and `COc1cc2nccc(Oc3ccc(NC(=O)NCCC(C)(C)C)cc3)c2cc1OCC(O)CN1CCOCC1` (centres unmarked) [Compound 225, 1-(3,3-Dimethyl-butyl)-3-{4-[6-(2-hydroxy-3-morpholin-4-yl-propoxy)-7-methoxy-quinolin-4-yloxy]-phenyl}-urea], with 19.9 nM; and `COc1cc2c(Oc3ccc(NC(=O)NCCC(C)(C)C)c(Cl)c3)ccnc2cc1OCCCN1CCC(O)CC1` [Compound 268, 1-(2-Chloro-4-{7-[3-(4-hydroxy-piperidin-1-yl)-propoxy]-6-methoxy-quinolin-4-yloxy}-phenyl)-3-(3,3-dimethyl-butyl)-urea], with 15.7 nM. Then `COc1cc2nccc(Oc3ccc(Nc4ccc(C(C)(C)C)cc4)c(Cl)c3)c2cc1OC` [Compound 11, (4-Tert-butylphenyl)-[2-chloro-4-(6,7-dimethoxyquinolin-4-yloxy)phenyl]amine], with 320 nM; and `COc1cc2c(Oc3ccc(NC(=O)NCCC(C)(C)C)c(Cl)c3)ccnc2cc1OCC(O)CN1CCCCC1` (centres unmarked) [Compound 193, 1-{2-Chloro-4-[7-(2-hydroxy-3-piperidin-1-yl-propoxy)-6-methoxy-quinolin-4-yloxy]-phenyl}-3-(3,3-dimethyl-butyl)-urea], with 17.4 nM; and `COc1cc2nccc(Oc3ccc(Oc4ccc(C(C)(C)C)cc4)cc3)c2cc1OC` [Compound 30, 4-[4-(4-Tert-butylphenoxy)phenoxy]-6,7-dimethoxyquinoline], with 3260 nM. As for `COc1cc2c(Oc3ccc(NC(=O)NCCC(C)(C)C)c(Cl)c3)ccnc2cc1OCCC1CCNCC1` [Compound 202, 1-{2-Chloro-4-[6-methoxy-7-(2-piperidin-4-yl-ethoxy)-quinolin-4-yloxy]-phenyl}-3-(3,3-dimethyl-butyl)-urea], the IC50 is 28.5 nM. Then `COc1cc2c(Oc3ccc(NC(=O)NCCC(C)(C)C)cc3)ccnc2cc1OCCCN1CCC(N2CCCCC2)CC1` [Compound 248, 1-{4-[7-(3-[1,4′]Bipiperidinyl-1′-yl-propoxy)-6-methoxy-quinolin-4-yloxy]-phenyl}-3-(3,3-dimethyl-butyl)-urea], with 12.6 nM; and `COc1cc2c(Oc3ccc(NC(=O)NCCC(C)(C)C)c(F)c3)ccnc2cc1OCC(O)CN1CCOCC1` (centres unmarked) [Compound 209, 1-(3,3-Dimethyl-butyl)-3-{2-fluoro-4-[7-(2-hydroxy-3-morpholin-4-yl-propoxy)-6-methoxy-quinolin-4-yloxy]-phenyl}-urea], with under 10 nM; and `COc1cc2c(Oc3ccc(NC(=O)NCCC(C)(C)C)cc3)ccnc2cc1OCCCN1CC(C)OC(C)C1` (centres unmarked) [Compound 244, 1-(3,3-Dimethyl-butyl)-3-(4-{7-[3-(2,6-dimethyl-morpholin-4-yl)-propoxy]-6-methoxy-quinolin-4-yloxy}-phenyl)-urea], with under 10 nM. Then `CCN(CCO)CCOc1cc2nccc(Oc3ccc(NC(=O)NCCC(C)(C)C)c(F)c3)c2cc1OC` [Compound 341, 1-(3,3-Dimethyl-butyl)-3-[4-(7-{2-[ethyl-(2-hydroxy-ethyl)-amino]-ethoxy}-6-methoxy-quinolin-4-yloxy)-2-fluoro-phenyl]-urea], with 28.9 nM; and `COc1cc2c(Oc3ccc(NC(=O)NCCC(C)(C)C)cc3)ccnc2cc1OCCCCCl` [Compound 153, 1-{4-[7-(4-Chloro-butoxy)-6-methoxy-quinolin-4-yloxy]-phenyl}-3-(3,3-dimethyl-butyl)-urea], with 241 nM.

Consider `COc1cc2c(Oc3ccc(Nc4ccc(C(C)(C)C)cc4)cc3)ccnc2cc1OCC(O)CN1CCC(N2CCCCC2)CC1` (centres unmarked) [Compound 258, 1-[1,4′]Bipiperidineyl-1′-yl-3-{4-[4-(4-tert-butyl-phenylamino)-phenoxy]-6-methoxy-quinolin-7-yloxy}-propan-2-ol], for which the IC50 was 110 nM. Then `COc1cc2c(Oc3ccc(NC(=O)NCCC(C)(C)C)cc3)ccnc2cc1OCC(O)CN1CCC(N2CCCC2)CC1` (centres unmarked) [Compound 262, 1-(3,3-Dimethyl-butyl)-3-(4-{7-[2-hydroxy-3-(4-pyrrolidin-1-yl-piperidin-1-yl)-propoxy]-6-methoxy-quinolin-4-yloxy}-phenyl)-urea], with under 10 nM.
